Each structure is given as a SMILES string.

Common to all, as to assay: Test A preemergence
Format in all cases: in vivo

The test system of test [1] is ragweed (common ragweed, Ambrosia elatior). The settings on record: Ambrosia artemisiifolia, pre-emergence, 240 h; for pest or weed control at 125 g/ha: 125 g ai/ha, visual injury rating after approximately 10 d, read-out: Ragweed plant response rating (0 to 100 scale, 0 is no effect, 100 is complete control); for pest or weed control at 500 g/ha: 500 g ai/ha, preemergence, visual injury rating about 10 d after treatment, read-out: Ragweed plant response rating. The essentials:
(§1)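 Seeds sprayed preemergence with a directed soil spray, or plants at 2 to 10 cm height and one- to two-leaf stage sprayed postemergence, with test chemicals in a non-phytotoxic solvent mixture containing surfactant, in loam soil–sand blend. Injury rated visually against untreated controls after about 10 d in greenhouse, 0 (no effect) to 100 (complete control).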

Test [2] has as its system barnyardgrass (Echinochloa crus-galli). Conditions: Echinochloa crus-galli, pre-emergence, 240 h; for pest or weed control at 125 g/ha: 125 g ai/ha, visual injury rating after approximately 10 d, read-out: Barnyardgrass plant response rating (0 to 100 scale, 0 is no effect, 100 is complete control); for pest or weed control at 500 g/ha: 500 g ai/ha, preemergence, visual injury rating about 10 d after treatment, read-out: Barnyardgrass plant response rating. The essentials: as §1

Test [3] has as its system pigweed (Amaranthus retroflexus). Conditions: Amaranthus retroflexus, pre-emergence, 240 h; for pest or weed control at 125 g/ha: 125 g ai/ha, visual injury rating after approximately 10 d, read-out: Pigweed plant response rating (0 to 100 scale, 0 is no effect, 100 is complete control); for pest or weed control at 500 g/ha: 500 g ai/ha, preemergence, visual injury rating about 10 d after treatment, read-out: Pigweed plant response rating.

Test [4] concerns Kochia (Kochia scoparia). The settings on record: Bassia scoparia, pre-emergence, 240 h; for pest or weed control at 125 g/ha: 125 g ai/ha, visual injury rating after approximately 10 d, read-out: Kochia plant response rating (0 to 100 scale, 0 is no effect, 100 is complete control); for pest or weed control at 500 g/ha: 500 g ai/ha, preemergence, visual injury rating about 10 d after treatment, read-out: Kochia plant response rating. Summed up:
as §1

Test [5] deals with giant foxtail (Setaria faberii). The settings on record: Setaria faberi, pre-emergence, 240 h; for pest or weed control at 125 g/ha: 125 g ai/ha, visual injury rating after approximately 10 d, read-out: Foxtail, Giant plant response rating (0 to 100 scale, 0 is no effect, 100 is complete control); for pest or weed control at 500 g/ha: 500 g ai/ha, preemergence, visual injury rating about 10 d after treatment, read-out: Foxtail, Giant plant response rating. Summed up:
as §1

Where [6] appears, read: 0 to 100 scale (0 no effect, 100 complete control).

For `Cc1cc([C@H]2CN(C)C(=O)[C@@H]2C(=O)Nc2ccccc2S(C)(=O)=O)ccc1Cl` [Compound 944], the pest or weed control at 125 g/ha was found to be 50% in test [1] (Preemergence); 90% in test [2] (Preemergence); 0% in test [3] (Preemergence); 0% in test [4] (Preemergence); 90% in test [5] (Preemergence). The pest or weed control at 500 g/ha in test [1] (setting [6]) was 50%; in test [2] (setting [6]), 90%; in test [3] (setting [6]), 20%; in test [4] (setting [6]), 70%; in test [5] (setting [6]) it was 90%.

In the case of `CC(C)Oc1ccc([C@H]2CN(C)C(=O)[C@@H]2C(=O)Nc2ccc(F)cc2F)cc1` [Compound 954], the pest or weed control at 125 g/ha in test [1] (Preemergence) was found to be 0%; in test [2] (Preemergence), 70%; in test [3] (Preemergence) it was 0%; in test [4] (Preemergence), 0%; in test [5] (Preemergence), 90%. Also, the pest or weed control at 500 g/ha in test [1] (setting [6]) came to 0%; in test [2] (setting [6]), 90%; in test [3] (setting [6]), 0%; in test [4] (setting [6]), 20%; in test [5] (setting [6]), 90%.

Consider `CCOc1cccc([C@H]2CN(C)C(=O)[C@@H]2C(=O)Nc2cccc(F)c2F)c1` [Compound 956], for which the pest or weed control at 125 g/ha was 20% in test [1] (Preemergence); 100% in test [2] (Preemergence); 0% in test [3] (Preemergence); 90% in test [4] (Preemergence); 100% in test [5] (Preemergence). Further, the pest or weed control at 500 g/ha was 80% in test [1] (setting [6]); 100% in test [2] (setting [6]); 0% in test [3] (setting [6]); 90% in test [4] (setting [6]); 100% in test [5] (setting [6]).

Regarding `CN1C[C@H](c2csc(C(F)(F)F)c2)[C@@H](C(=O)Nc2cccc(F)c2F)C1=O` [Compound 959], the pest or weed control at 125 g/ha in test [1] (Preemergence) was 70%; in test [2] (Preemergence), 90%; in test [3] (Preemergence) it was 0%; in test [4] (Preemergence) it was 70%; in test [5] (Preemergence), 90%. Besides, the pest or weed control at 500 g/ha in test [1] (setting [6]) was found to be 70%; in test [2] (setting [6]) it was 100%; in test [3] (setting [6]), 30%; in test [4] (setting [6]), 90%; in test [5] (setting [6]), 100%.

On to `CN1C[C@H](c2cc(C(F)(F)F)cs2)[C@@H](C(=O)Nc2ccccc2F)C1=O` [Compound 962], for which the pest or weed control at 125 g/ha in test [1] (Preemergence) was determined as 20%; in test [2] (Preemergence), 90%; in test [3] (Preemergence), 0%; in test [4] (Preemergence), 50%; in test [5] (Preemergence), 90%. In addition, the pest or weed control at 500 g/ha amounted to 30% in test [1] (setting [6]); 90% in test [2] (setting [6]); 50% in test [3] (setting [6]); 70% in test [4] (setting [6]); 90% in test [5] (setting [6]).

As for `CC(C)COc1cccc([C@H]2CNC(=O)[C@@H]2C(=O)Nc2cccc(F)c2F)c1` [Compound 965], the pest or weed control at 125 g/ha in test [1] (Preemergence) came out at 0%; in test [2] (Preemergence), 90%; in test [3] (Preemergence), 0%; in test [4] (Preemergence), 0%; in test [5] (Preemergence) it was 90%. The pest or weed control at 500 g/ha in test [1] (setting [6]) came out at 0%; in test [2] (setting [6]), 90%; in test [3] (setting [6]) it was 0%; in test [4] (setting [6]) it was 60%; in test [5] (setting [6]), 90%.

As for `CC(C)COc1cccc([C@H]2CNC(=O)[C@@H]2C(=O)Nc2ccc(F)cc2F)c1` [Compound 966], the pest or weed control at 125 g/ha in test [1] (Preemergence) came to 0%; in test [2] (Preemergence), 80%; in test [3] (Preemergence) it was 0%; in test [4] (Preemergence), 30%; in test [5] (Preemergence), 80%. The pest or weed control at 500 g/ha was 0% in test [1] (setting [6]); 90% in test [2] (setting [6]); 0% in test [3] (setting [6]); 30% in test [4] (setting [6]); 90% in test [5] (setting [6]).

On to `CN1C[C@H](c2cc(F)cc(F)c2)[C@@H](C(=O)Nc2ccc(C(F)(F)F)cc2)C1=O` [Compound 968], for which the pest or weed control at 125 g/ha amounted to 0% in test [1] (Preemergence); 20% in test [2] (Preemergence); 0% in test [3] (Preemergence); 0% in test [4] (Preemergence); 30% in test [5] (Preemergence). In addition, the pest or weed control at 500 g/ha turned out to be 0% in test [1] (setting [6]); 60% in test [2] (setting [6]); 0% in test [3] (setting [6]); 0% in test [4] (setting [6]); 60% in test [5] (setting [6]).

As for `CCOc1cc([C@H]2CN(C)C(=O)[C@@H]2C(=O)Nc2cccc(F)c2F)cc(C(F)(F)F)c1` [Compound 971], the pest or weed control at 125 g/ha in test [1] (Preemergence) was 20%; in test [2] (Preemergence), 90%; in test [3] (Preemergence), 20%; in test [4] (Preemergence) it was 0%; in test [5] (Preemergence), 90%. In addition, the pest or weed control at 31 g/ha was 0% in test [1] (Preemergence, 31 g ai/ha, 0 to 100 scale (0 no effect, 100 complete control), read-out: Plant response rating, Ragweed); 70% in test [2] (Preemergence, 31 g ai/ha, 0 to 100 scale (0 no effect, 100 complete control), read-out: Plant response rating, Barnyardgrass); 20% in test [3] (Preemergence, 31 g ai/ha, 0 to 100 scale (0 no effect, 100 complete control), read-out: Plant response rating, Pigweed); 0% in test [4] (Preemergence, 31 g ai/ha, 0 to 100 scale (0 no effect, 100 complete control), read-out: Plant response rating, Kochia); 70% in test [5] (Preemergence, 31 g ai/ha, 0 to 100 scale (0 no effect, 100 complete control), read-out: Plant response rating, Foxtail, Giant).

`CSc1ccccc1NC(=O)[C@H]1C(=O)NC[C@@H]1c1cc(F)cc(Cl)c1` [Compound 977]: the pest or weed control at 125 g/ha in test [1] (Preemergence) worked out at 70%; in test [2] (Preemergence), 90%; in test [3] (Preemergence), 40%; in test [4] (Preemergence) it was 90%; in test [5] (Preemergence), 90%. In addition, the pest or weed control at 500 g/ha in test [1] (setting [6]) worked out at 100%; in test [2] (setting [6]), 90%; in test [3] (setting [6]) it was 70%; in test [4] (setting [6]), 90%; in test [5] (setting [6]), 90%.

Consider `CN1C[C@H](c2cc(F)cc(Cl)c2)[C@@H](C(=O)Nc2ccccc2S(C)(=O)=O)C1=O` [Compound 979], for which the pest or weed control at 125 g/ha was determined as 50% in test [1] (Preemergence); 90% in test [2] (Preemergence); 40% in test [3] (Preemergence); 50% in test [4] (Preemergence); 90% in test [5] (Preemergence). Moreover, the pest or weed control at 500 g/ha in test [1] (setting [6]) worked out at 90%; in test [2] (setting [6]), 90%; in test [3] (setting [6]), 90%; in test [4] (setting [6]), 90%; in test [5] (setting [6]), 100%.

As for `COc1ccc([C@H]2CN(C)C(=O)[C@@H]2C(=O)Nc2ccccc2SC)cc1C(F)(F)F` [Compound 991], the pest or weed control at 125 g/ha was 0% in test [1] (Preemergence); 70% in test [2] (Preemergence); 60% in test [3] (Preemergence); 0% in test [4] (Preemergence); 90% in test [5] (Preemergence). For the same molecule, the pest or weed control at 500 g/ha in test [1] (setting [6]) worked out at 30%; in test [2] (setting [6]) it was 90%; in test [3] (setting [6]), 50%; in test [4] (setting [6]) it was 60%; in test [5] (setting [6]), 90%.

For the origin of these results see patent publication US12077503B2, “Substituted cyclic amides and their use as herbicides” (FMC CORPORATION, priority 2015, dated 2024).
